Measurements taken from patent US20250197387A1, “BCL-XL DEGRADERS AND USES THEREOF” (Kymera Therapeutics, Inc., priority 2021, published 2025).
Like-named read-outs stand apart in the source and are kept apart here.

Legend:
Type in all cases: cell-based
BCL-XL = biological target: T1, BCL-XL (Homo sapiens, UniProt Q07817); assay: Bcl-xL ELISA degradation in MOLT-4 cells, 6 h; conditions: for DC50: read-out: Bcl-xL ELISA in MOLT-4 degradation 6 h: Mean external-Abs DC50
T1 construct: endogenous in cells; host or cells: MOLT-4
Experimental: The letter codes for BCL-XL DC50 include: A (<0.01 μM); B (0.01-0.1 μM); C (>[…]); D (>0.5-1.0 μM); and E (>1.0 μM). The letter codes for Dmax % include A (>75%); B (50 to 75%); C (<50%).

MOLT-4 cells = assay: CTG (CellTiter-Glo) cell viability assay, MOLT-4; conditions: 3 day incubation, read-out: CTG Cell Viability Assay - MOLT-4 3 day: Average external-IC50
Procedure, shortened: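 10,000 cells/well; 9 doses, 1:3 from 10 μM top; 0.2% DMSO; 3 d, 37 °C, 5% CO2; CTG luminescence; IC50 via 3-parameter logistic fit. Letter bins differ: Caki-2 C/D cut at 10.0 μM, MOLT-4 at 3.0 μM.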

Caki-2 cells = assay: CTG (CellTiter-Glo) cell viability assay, Caki-2; conditions: 3 day incubation, read-out: CTG Chempartner - Caki-2 3 day: Average external-IC50
Experimental: Compound-mediated viability effect on MOLT-4 and Caki-2 was quantitatively determined using the CellTiter-Glo® Luminescent Cell Viability Assay kit from Promega (Catalog number G7570) following manufacturer's recommended procedures. Briefly, MOLT-4 and Caki-2 cells were seeded into 384 well plates (Grenier Bio-One, Catalog number 781080) with a density of 10,000 cells per well. Compounds were then added to the assay plate with final top concentration of 10 μM and 1:3 dilution series with total of 9 doses. The final DMSO concentration is normalized to 0.2%. The assay plates were incubated at 37° C., for 3 days under 5% CO2. Then the assay plate was equilibrated at room temperature for 10 minutes. To determine cell viability, 30 uL CellTiter Glo reagent was added to each well and the assay plate was centrifuged at 1000 rpm for 30 second, incubated at room temperature for 10 min, and analyzed by detecting the luminescence using a multimode plate reader (EnVision 2105, PerkinElmer). The data was then analyzed by software Prism 7.0 from GraphPad and the dose response curves are fit using a three-parameter logistic equation to calculate IC50.
The letter codes for MOLT-4 IC50 include: A (<0.1 μM); B (0.1-1.0 μM); C (>1.0-3.0 μM); and D (>3.0 μM). The letter codes for Caki-2 IC50 include: A (<0.1 μM); B (0.1-1.0 μM); C (>1.0-10.0 μM); and D (>10.0 μM).

T1 sequence (Q07817 whole entry): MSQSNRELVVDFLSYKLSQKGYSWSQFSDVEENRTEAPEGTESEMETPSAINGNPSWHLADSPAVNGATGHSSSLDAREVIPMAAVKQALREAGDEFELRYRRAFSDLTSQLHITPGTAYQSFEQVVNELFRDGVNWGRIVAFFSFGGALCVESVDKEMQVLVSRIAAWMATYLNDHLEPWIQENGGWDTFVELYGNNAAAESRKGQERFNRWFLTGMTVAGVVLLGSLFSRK

| SMILES | Dmax (BCL-XL) [%] | DC50 (BCL-XL) [nM] | IC50 (MOLT-4 cells; Homo sapiens, MOLT-4, 72 h) [nM] | IC50 (Caki-2 cells; Homo sapiens, 72 h) [nM] | Bcl-xL ELISA in MOLT-4 degradation 6 h: Average Dmax % (BCL-XL) | IC50 (MOLT-4 cells) [nM] | IC50 (Caki-2 cells) [nM] |
| --- | --- | --- | --- | --- | --- | --- | --- |
| Cc1ncsc1-c1ccc([C@H](C)NC(=O)[C@@H]2C[C@@H](O)CN2C(=O)[C@@H](NC(=O)C2CCN(c3ccc(S(=O)(=O)NC(=O)c4nc(N5CCc6cccc(C(=O)Nc7nc8ccccc8s7)c6C5)ccc4-c4cnn(CC5(OCCO)CCCCC5)c4C)cc3)CC2)C(C)(C)C)cc1 [I-409] | > 75 | 10 to 100 | < 100 | > 10000 |  |  |  |
| Cc1cc(N(C)c2ccc(-c3cnn(CC45CC6CC(CC(C6)C4)C5)c3C)c(C(=O)NS(=O)(=O)c3ccc(N4CC(C(=O)N[C@H](C(=O)N5C[C@H](O)C[C@H]5C(=O)N[C@@H](C)c5ccc(-c6scnc6C)cc5)C(C)(C)C)C4)cc3)n2)nnc1Nc1nc2ccccc2s1 [I-434] | > 75 | 10 to 100 | < 100 | > 10000 |  |  |  |
| Cc1ncsc1-c1ccc([C@H](C)NC(=O)[C@@H]2C[C@@H](O)CN2C(=O)[C@@H](NC(=O)c2ccc(N3CCC(S(=O)(=O)NC(=O)c4nc(N5CCc6cccc(C(=O)Nc7nc8ccccc8s7)c6C5)ccc4-c4cnn(CC5CCCCC5)c4C)CC3)cc2)C(C)(C)C)cc1 [I-303] | > 75 | 100 to 500 | 100 to 1000 | 1000 to 10000 |  |  |  |
| Cc1cc(N(C)c2ccc(-c3cnn(CC45CC6CC(CC(C6)C4)C5)c3C)c(C(=O)NS(=O)(=O)CCCCCC(=O)N[C@H](C(=O)N3C[C@H](O)C[C@H]3C(=O)N[C@@H](C)c3ccc(C#N)cc3)C(C)(C)C)n2)nnc1Nc1nc2ccccc2s1 [I-464] | > 75 | 10 to 100 | 100 to 1000 | > 10000 |  |  |  |
| Cc1ncsc1-c1ccc([C@H](C)NC(=O)[C@@H]2C[C@@H](O)CN2C(=O)[C@@H](NC(=O)CCCCCS(=O)(=O)NC(=O)c2nc(N3CCc4cccc(C(=O)Nc5nc6ccccc6s5)c4C3)ccc2-c2ccnc(OC(C)C)c2C)C(C)(C)C)cc1 [I-315] | > 75 | 10 to 100 | < 100 | > 10000 |  |  |  |
| COc1nn(C)c2ccc([C@H](C)NC(=O)[C@@H]3C[C@@H](O)CN3C(=O)[C@@H](NC(=O)CCCCCS(=O)(=O)NC(=O)c3nc(N4CCc5cccc(C(=O)Nc6nc7cccnc7s6)c5C4)ccc3-c3cnn(CC4CCCCC4)c3C)C(C)(C)C)cc12 [I-489] | > 75 | 10 to 100 | < 100 | > 10000 |  |  |  |
| Cc1ncsc1-c1ccc([C@H](C)NC(=O)[C@@H]2C[C@@H](O)CN2C(=O)[C@@H](NC(=O)C2CCN(c3ccc(S(=O)(=O)NC(=O)c4nc(N5CCc6cccc(C(=O)Nc7nc8ccccc8s7)c6C5)ccc4-c4cnn(CC5CCCC5)c4C)cc3)CC2)C(C)(C)C)cc1 [I-348] | > 75 | < 10 | < 100 | > 10000 |  |  |  |
| Cc1ncsc1-c1ccc(CNC(=O)[C@@H]2C[C@@H](O)CN2C(=O)[C@@H](NC(=O)[C@H]2CCN(c3ccc(S(=O)(=O)NC(=O)c4nc(N5CCc6cccc(C(=O)Nc7nc8ccccc8s7)c6C5)ccc4-c4cnn(CC5CCCCC5)c4C)cc3)C2)C(C)(C)C)cc1 [I-359] | > 75 | < 10 | < 100 | > 10000 |  |  |  |
| C#Cc1ccc([C@H](C)NC(=O)[C@@H]2C[C@@H](O)CN2C(=O)[C@@H](NC(=O)CCCCCS(=O)(=O)NC(=O)c2nc(N3CCc4cccc(C(=O)Nc5nc6cccnc6s5)c4C3)ccc2-c2cnn(CC3CCCCC3)c2C)C(C)(C)C)cc1 [I-364] | > 75 | < 10 | < 100 | > 10000 |  |  |  |
| Cc1ncsc1-c1ccc(CNC(=O)[C@@H]2C[C@@H](O)CN2C(=O)[C@@H](NC(=O)CCc2cccc(S(=O)(=O)NC(=O)c3nc(N4CCc5cccc(C(=O)Nc6nc7ccccc7s6)c5C4)ccc3-c3cnn(CC4CCCCC4)c3C)c2)C(C)(C)C)cc1 [I-321] |  | 10 to 100 |  |  | A (A (>75%)) | < 100 | 1000 to 10000 |
| Cc1ncsc1-c1ccc(CNC(=O)[C@@H]2C[C@@H](O)CN2C(=O)[C@@H](NC(=O)C2CCN(c3ccc(S(=O)(=O)NC(=O)c4nc(N5CCc6cccc(C(=O)Nc7nc8ccccc8s7)c6C5)ccc4-c4cnn(CC5CCCCC5)c4C)cc3F)CC2)C(C)(C)C)cc1 [I-329] | > 75 | 10 to 100 | < 100 | 1000 to 10000 |  |  |  |
| C#Cc1ccc(CNC(=O)[C@@H]2C[C@@H](O)CN2C(=O)[C@@H](NC(=O)CCCCCS(=O)(=O)NC(=O)c2nc(N3CCc4cccc(C(=O)Nc5nc6cccnc6s5)c4C3)ccc2-c2cnn(CC3CCCC3)c2C)C(C)(C)C)cc1 [I-445] | > 75 | 10 to 100 | 100 to 1000 | > 10000 |  |  |  |
| C#Cc1ccc(CNC(=O)[C@@H]2C[C@@H](O)CN2C(=O)[C@@H](NC(=O)C2CN(c3ccc(S(=O)(=O)NC(=O)c4nc(N(C)c5cc(C)c(Nc6nc7ccccc7s6)nn5)ccc4-c4cnn(CC56CC7CC(CC(C7)C5)C6)c4C)cc3)C2)C(C)(C)C)cc1 [I-440] | > 75 | < 10 | < 100 | > 10000 |  |  |  |
| Cc1ncsc1-c1ccc([C@H](C)NC(=O)[C@@H]2C[C@@H](O)CN2C(=O)[C@@H](NC(=O)C2CCC(O)(c3ccc(S(=O)(=O)NC(=O)c4nc(N5CCc6cccc(C(=O)Nc7nc8ccccc8s7)c6C5)ccc4-c4cnn(CC5CCCCC5)c4C)cc3)CC2)C(C)(C)C)cc1 (stereo partly shown) [I-314] | < 50 | > 1000 | 100 to 1000 | 1000 to 10000 |  |  |  |
| Cc1ncsc1-c1ccc([C@H](C)NC(=O)[C@@H]2C[C@@H](O)CN2C(=O)[C@H](NC(=O)CCCCCCCS(=O)(=O)NC(=O)c2nc(N3CCc4cccc(C(=O)Nc5nc6ccccc6s5)c4C3)ccc2-c2cnn(CC34CC5CC(CC(C5)C3)C4)c2C)C(C)(C)C)cc1 [I-284] | > 75 | < 10 | < 100 | 100 to 1000 |  |  |  |
| Cc1ncsc1-c1ccc(CNC(=O)[C@@H]2C[C@@H](O)CN2C(=O)[C@@H](NC(=O)CCc2cc(F)c(S(=O)(=O)NC(=O)c3nc(N4CCc5cccc(C(=O)Nc6nc7ccccc7s6)c5C4)ccc3-c3cnn(CC4CCCCC4)c3C)c(F)c2)C(C)(C)C)cc1 [I-347] | > 75 | 10 to 100 | 100 to 1000 | > 10000 |  |  |  |
| C#Cc1ccc(C2(NC(=O)[C@@H]3C[C@@H](O)CN3C(=O)[C@@H](NC(=O)CCCCCS(=O)(=O)NC(=O)c3nc(N(C)c4cc(C)c(Nc5nc6ccccc6s5)nn4)ccc3-c3cnn(CC45CC6CC(CC(C6)C4)C5)c3C)C(C)(C)C)CC2)cc1 [I-481] | > 75 | < 10 | < 100 | > 10000 |  |  |  |
| Cc1ncsc1-c1ccc(CNC(=O)[C@@H]2C[C@@H](O)CN2C(=O)[C@@H](NC(=O)CCc2ccc(S(=O)(=O)NC(=O)c3nc(N4CCc5cccc(C(=O)Nc6nc7ccccc7s6)c5C4)ccc3-c3cnn(CC4CCCCC4)c3C)c(F)c2)C(C)(C)C)cc1 [I-320] | > 75 | 100 to 500 | 1000 to 3000 | > 10000 |  |  |  |
| Cc1ncsc1-c1ccc([C@H](C)NC(=O)[C@@H]2C[C@@H](O)CN2C(=O)[C@@H](NC(=O)CCCS(=O)(=O)NC(=O)c2nc(N3CCc4cccc(C(=O)Nc5nc6ccccc6s5)c4C3)ccc2-c2cnn(CC3CCCCC3)c2C)C(C)(C)C)cc1 [I-304] | > 75 | < 10 | 100 to 1000 | 1000 to 10000 |  |  |  |
